By pIC50 is commonly meant the negative decadic logarithm of the IC50, by convention in mol/L.

Structures are written as SMILES. pIC50: −log10 of the molar value. Where a SMILES comes first, the peptide text is derived from it. Bridges are numbered along the chain shown (N, C = ends). [ ]: non-standard residue; d: D form. The star is where a group is joined. ξ: configuration not given here. Phe(4-COOH) = N[C@@H](Cc1ccc(C(=O)O)cc1)C(=O)O; Bip = N[C@@H](Cc1ccc(-c2ccccc2)cc1)C(=O)O; hArg = N=C(N)NCCCC[C@H](N)C(=O)O; 4Pal = N[C@@H](Cc1ccncc1)C(=O)O; Cha = N[C@@H](CC1CCCCC1)C(=O)O; Ile(3ξ) = CCC(C)[C@H](N)C(=O)O; Thr(3ξ) = CC(O)[C@H](N)C(=O)O; 12Ado = NCCCCCCCCCCCC(=O)O; Carboxymethyl = O=C(O)C*; NMeA = CN[C@@H](C)C(=O)O; Orn = NCCC[C@H](N)C(=O)O; Aun = NCCCCCCCCCCC(=O)O; Dab = NCC[C@H](N)C(=O)O; Dap = NC[C@H](N)C(=O)O; AEEA = NCCOCCOCC(=O)O

The test deals with T1, PD-1/PD-L1 interaction (PE-labeled human PD-L1-Ig binding to Jurkat cell line over-expressing human PD-1) (Homo sapiens, UniProt Q15116).
T1 construct: expressed in transfected cells; host or cells: Jurkat
T1 sequence (Q15116 25-288): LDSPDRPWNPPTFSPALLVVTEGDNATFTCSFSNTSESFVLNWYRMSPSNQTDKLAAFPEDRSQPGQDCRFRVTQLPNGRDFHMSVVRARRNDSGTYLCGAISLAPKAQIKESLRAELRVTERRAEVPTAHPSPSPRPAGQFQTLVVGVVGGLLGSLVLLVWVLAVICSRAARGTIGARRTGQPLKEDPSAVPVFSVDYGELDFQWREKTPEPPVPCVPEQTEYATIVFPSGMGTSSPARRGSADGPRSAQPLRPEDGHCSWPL
The experiment in a line: Jurkat-PD-1 Cell Binding High-Content Screening Assay (CBA). Particulars: Jurkat-hPD-1 cells, PE-labeled PD-L1-Ig 20 nM final; read-out: Jurkat HPD1 PDL1 IC50. The essentials: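 Jurkat cells overexpressing human PD-1 (8×10^3/well, DMEM + 10% FCS) preincubated with compound 2 h at 37 °C, then PE-labelled human PD-L1-Ig (20 nM final) for 1 h. Cells fixed in paraformaldehyde with Hoechst 33342; bound PD-L1 quantified by high-content imaging.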
For the molecule `CC(C)C[C@@H]1NC(=O)[C@H](Cc2c[nH]c3ccccc23)NC(=O)[C@H](CC(=O)O)NC(=O)[C@H](Cc2ccc(C(=O)O)cc2)NC(=O)[C@H](Cc2ccc(OCC(=O)O)cc2)NC(=O)CSC[C@@H](C(=O)N[C@@H](CCCN)C(=O)NCCOCCOCC(=O)NCCCCCCCCCCC(=O)O)NC(=O)[C@H](CCCCN)NC(=O)[C@H](C(C)C)NC(=O)[C@H](CC2CCCCC2)NC(=O)[C@H](CCC(=O)O)NC(=O)[C@@H](CC(C)C)NC(=O)[C@H](C)N(C)C(=O)[C@H](C(C)C)NC(=O)[C@H](Cc2ccc(-c3ccccc3)cc2)NC1=O` [Example 2137] ({CH2CO}-Y(Carboxymethyl)[Phe(4-COOH)]DWL[Bip]V[NMeA][dL]E[Cha]VKC[Orn][AEEA][Aun]-OH; thioether N-14), the negative logarithm of the IC50 (pIC50) was 7.52.
The result for `CC(C)C[C@@H]1NC(=O)[C@H](Cc2c[nH]c3ccccc23)NC(=O)[C@H](CC(=O)O)NC(=O)[C@H](Cc2ccc(C(=O)O)cc2)NC(=O)[C@H](Cc2ccc(OCC(=O)O)cc2)NC(=O)CSC[C@@H](C(=O)N[C@@H](CCCN)C(=O)NCCOCCOCC(=O)NCCCCCCCCCCC(=O)O)NC(=O)[C@H](CO)NC(=O)[C@H](C(C)C)NC(=O)[C@H](CC2CCCCC2)NC(=O)[C@H](CCCN)NC(=O)[C@@H](CC(C)C)NC(=O)[C@H](C)N(C)C(=O)[C@H](C(C)C)NC(=O)[C@H](Cc2ccc(-c3ccccc3)cc2)NC1=O` [Example 2138] ({CH2CO}-Y(Carboxymethyl)[Phe(4-COOH)]DWL[Bip]V[NMeA][dL][Orn][Cha]VSC[Orn][AEEA][Aun]-OH; thioether N-14) reads 7.85.
Take `CC(C)C[C@@H]1NC(=O)[C@H](Cc2c[nH]c3ccccc23)NC(=O)[C@H](CC(=O)O)NC(=O)[C@H](Cc2ccc(OCC(=O)O)cc2)NC(=O)[C@H](CCCNC(=N)N)NC(=O)CSC[C@@H](C(=O)N[C@@H](CCCN)C(=O)NCCOCCOCC(=O)NCCCCCCCCCCC(=O)O)NC(=O)[C@H](CO)NC(=O)[C@H](C(C)C)NC(=O)[C@H](CC2CCCCC2)NC(=O)[C@H](CCN)NC(=O)[C@@H](CC(C)C)NC(=O)[C@H](C)N(C)C(=O)[C@H](C(C)C)NC(=O)[C@H](Cc2ccc(-c3ccccc3)cc2)NC1=O` [Example 2139] ({CH2CO}-RY(Carboxymethyl)DWL[Bip]V[NMeA][dL][Dab][Cha]VSC[Orn][AEEA][Aun]-OH; thioether N-14): the pIC50 is 7.96.
The result for `CC(C)C[C@@H]1NC(=O)[C@H](Cc2c[nH]c3ccccc23)NC(=O)[C@H](CC(=O)O)NC(=O)[C@H](CCCCNC(=N)N)NC(=O)[C@H](Cc2ccc(OCC(=O)O)cc2)NC(=O)CSC[C@@H](C(=O)N[C@@H](CCCN)C(=O)NCCOCCOCC(=O)NCCCCCCCCCCC(=O)O)NC(=O)[C@H](CO)NC(=O)[C@H](C(C)C)NC(=O)[C@H](CC2CCCCC2)NC(=O)[C@H](CCN)NC(=O)[C@@H](CC(C)C)NC(=O)[C@H](C)N(C)C(=O)[C@H](C(C)C)NC(=O)[C@H](Cc2ccc(-c3ccccc3)cc2)NC1=O` [Example 2140] ({CH2CO}-Y(Carboxymethyl)[hArg]DWL[Bip]V[NMeA][dL][Dab][Cha]VSC[Orn][AEEA][Aun]-OH; thioether N-14) reads 7.80; that for `CC(C)C[C@@H]1NC(=O)[C@H](Cc2c[nH]c3ccccc23)NC(=O)[C@H](CC(=O)O)NC(=O)[C@H](Cc2ccncc2)NC(=O)[C@H](Cc2ccc(OCC(=O)O)cc2)NC(=O)CSC[C@@H](C(=O)N[C@@H](CCCN)C(=O)NCCOCCOCC(=O)NCCCCCCCCCCCC(=O)O)NC(=O)[C@H](CO)NC(=O)[C@H](C(C)C)NC(=O)[C@H](CC2CCCCC2)NC(=O)[C@H](CCN)NC(=O)[C@@H](CC(C)C)NC(=O)[C@H](C)N(C)C(=O)[C@H](C(C)C)NC(=O)[C@H](Cc2ccc(-c3ccccc3)cc2)NC1=O` [Example 2141] ({CH2CO}-Y(Carboxymethyl)[4Pal]DWL[Bip]V[NMeA][dL][Dab][Cha]VSC[Orn][AEEA][12Ado]-OH; thioether N-14), 7.88.
With `CC(C)C[C@@H]1NC(=O)[C@H](Cc2c[nH]c3ccccc23)NC(=O)[C@H](CC(=O)O)NC(=O)[C@H](Cc2ccc(OCC(=O)O)cc2)NC(=O)[C@H](Cc2ccncc2)NC(=O)CSC[C@@H](C(=O)N[C@@H](CCCN)C(=O)NCCOCCOCC(=O)NCCCCCCCCCCC(=O)O)NC(=O)[C@H](CO)NC(=O)[C@H](C(C)C)NC(=O)[C@H](CC2CCCCC2)NC(=O)[C@H](CCN)NC(=O)[C@@H](CC(C)C)NC(=O)[C@H](C)N(C)C(=O)[C@H](C(C)C)NC(=O)[C@H](Cc2ccc(-c3ccccc3)cc2)NC1=O` [Example 2142] ({CH2CO}-[4Pal]Y(Carboxymethyl)DWL[Bip]V[NMeA][dL][Dab][Cha]VSC[Orn][AEEA][Aun]-OH; thioether N-14) the figure was 7.94; with `CC(C)C[C@@H]1NC(=O)[C@H](Cc2c[nH]c3ccccc23)NC(=O)[C@H](CC(=O)O)NC(=O)[C@H](Cc2ccc(C(=O)O)cc2)NC(=O)[C@H](Cc2ccc(OCC(=O)O)cc2)NC(=O)CSC[C@@H](C(=O)N[C@@H](CCCN)C(=O)NCCOCCOCC(=O)NCCCCCCCCCCC(=O)O)NC(=O)[C@H](CN)NC(=O)[C@H](C(C)C)NC(=O)[C@H](CC2CCCCC2)NC(=O)[C@H](CC(N)=O)NC(=O)[C@@H](CC(C)C)NC(=O)[C@H](C)N(C)C(=O)[C@H](C(C)C)NC(=O)[C@H](Cc2ccc(-c3ccccc3)cc2)NC1=O` [Example 2143] ({CH2CO}-Y(Carboxymethyl)[Phe(4-COOH)]DWL[Bip]V[NMeA][dL]N[Cha]V[Dap]C[Orn][AEEA][Aun]-OH; thioether N-14), 7.21; with `CC(C)C[C@@H]1NC(=O)[C@H](Cc2c[nH]c3ccccc23)NC(=O)[C@H](CC(=O)O)NC(=O)[C@H](Cc2ccc(C(=O)O)cc2)NC(=O)[C@H](Cc2ccc(OCC(=O)O)cc2)NC(=O)CSC[C@@H](C(=O)N[C@@H](CCCN)C(=O)NCCOCCOCC(=O)NCCCCCCCCCCC(=O)O)NC(=O)[C@H](CCCN)NC(=O)[C@H](C(C)C)NC(=O)[C@H](CC2CCCCC2)NC(=O)[C@H](CC(N)=O)NC(=O)[C@@H](CC(C)C)NC(=O)[C@H](C)N(C)C(=O)[C@H](C(C)C)NC(=O)[C@H](Cc2ccc(-c3ccccc3)cc2)NC1=O` [Example 2144] ({CH2CO}-Y(Carboxymethyl)[Phe(4-COOH)]DWL[Bip]V[NMeA][dL]N[Cha]V[Orn]C[Orn][AEEA][Aun]-OH; thioether N-14), 7.71.
With `CC(C)C[C@@H]1NC(=O)[C@H](Cc2c[nH]c3ccccc23)NC(=O)[C@H](CC(=O)O)NC(=O)[C@H](Cc2ccc(C(=O)O)cc2)NC(=O)[C@H](Cc2ccc(OCC(=O)O)cc2)NC(=O)CSC[C@@H](C(=O)N[C@@H](CCCN)C(=O)NCCOCCOCC(=O)NCCCCCCCCCCC(=O)O)NC(=O)[C@H](CCCCN)NC(=O)[C@H](C(C)C)NC(=O)[C@H](CC2CCCCC2)NC(=O)[C@H](CC(N)=O)NC(=O)[C@@H](CC(C)C)NC(=O)[C@H](C)N(C)C(=O)[C@H](C(C)C)NC(=O)[C@H](Cc2ccc(-c3ccccc3)cc2)NC1=O` [Example 2145] ({CH2CO}-Y(Carboxymethyl)[Phe(4-COOH)]DWL[Bip]V[NMeA][dL]N[Cha]VKC[Orn][AEEA][Aun]-OH; thioether N-14) the figure was 7.84; with `CC(C)C[C@@H]1NC(=O)[C@H](Cc2c[nH]c3ccccc23)NC(=O)[C@H](CC(=O)O)NC(=O)[C@H](Cc2c[nH]cn2)NC(=O)[C@H](Cc2ccc(OCC(=O)O)cc2)NC(=O)CSC[C@@H](C(=O)N[C@@H](CCCN)C(=O)NCCOCCOCC(=O)NCCCCCCCCCCC(=O)O)NC(=O)[C@H](CO)NC(=O)[C@H](C(C)C)NC(=O)[C@H](CC2CCCCC2)NC(=O)[C@H](CCN)NC(=O)[C@@H](CC(C)C)NC(=O)[C@H](C)N(C)C(=O)[C@H](C(C)C)NC(=O)[C@H](Cc2ccc(-c3ccccc3)cc2)NC1=O` [Example 2146] ({CH2CO}-Y(Carboxymethyl)HDWL[Bip]V[NMeA][dL][Dab][Cha]VSC[Orn][AEEA][Aun]-OH; thioether N-14), 7.90.
Turning to `CC(C)C[C@@H]1NC(=O)[C@H](Cc2c[nH]c3ccccc23)NC(=O)[C@H](CC(=O)O)NC(=O)[C@H](Cc2ccc(O)cc2)NC(=O)[C@H](Cc2ccncc2)NC(=O)CSC[C@@H](C(=O)N[C@@H](CCCN)C(=O)NCCOCCOCC(=O)NCCCCCCCCCCC(=O)O)NC(=O)[C@H](CO)NC(=O)[C@H](C(C)C)NC(=O)[C@H](CC2CCCCC2)NC(=O)[C@H](CCN)NC(=O)[C@@H](CC(C)C)NC(=O)[C@H](C)N(C)C(=O)[C@H](C(C)C)NC(=O)[C@H](Cc2ccc(-c3ccccc3)cc2)NC1=O` [Example 2147] ({CH2CO}-[4Pal]YDWL[Bip]V[NMeA][dL][Dab][Cha]VSC[Orn][AEEA][Aun]-OH; thioether N-14), the negative logarithm of the IC50 (pIC50) was 7.98.
As for `CC(C)C[C@@H]1NC(=O)[C@H](Cc2c[nH]c3ccccc23)NC(=O)[C@H](CC(=O)O)NC(=O)[C@H](Cc2ccc(O)cc2)NC(=O)[C@H](Cc2ccccc2)NC(=O)CSC[C@@H](C(=O)N[C@@H](CCCN)C(=O)NCCOCCOCC(=O)NCCCCCCCCCCC(=O)O)NC(=O)[C@H](CO)NC(=O)[C@H](C(C)C)NC(=O)[C@H](CC2CCCCC2)NC(=O)[C@H](CCN)NC(=O)[C@@H](CC(C)C)NC(=O)[C@H](C)N(C)C(=O)[C@H](C(C)C)NC(=O)[C@H](Cc2ccc(-c3ccccc3)cc2)NC1=O` [Example 2148] ({CH2CO}-FYDWL[Bip]V[NMeA][dL][Dab][Cha]VSC[Orn][AEEA][Aun]-OH; thioether N-14), the negative-log IC50 (pIC50) was 7.27.
In the case of `CCC(C)[C@@H]1NC(=O)[C@H](Cc2ccc(-c3ccccc3)cc2)NC(=O)[C@H](C(C)C)NC(=O)[C@H](Cc2c[nH]c3ccccc23)NC(=O)[C@H](CC(=O)O)NC(=O)[C@H](Cc2ccc(C(=O)O)cc2)NC(=O)[C@H](Cc2ccc(OCC(=O)O)cc2)NC(=O)CSC[C@@H](C(=O)N[C@@H](CCCN)C(=O)NCCOCCOCC(=O)NCCCCCCCCCCC(=O)O)NC(=O)[C@H](C(C)O)NC(=O)[C@H](C(C)C)NC(=O)[C@H](CC2CCCCC2)NC(=O)[C@H](CCN)NC(=O)[C@@H](CC(C)C)NC(=O)[C@H](C)N(C)C1=O` (stereo partly drawn) [Example 2149] ({CH2CO}-Y(Carboxymethyl)[Phe(4-COOH)]DWV[Bip][Ile(3ξ)][NMeA][dL][Dab][Cha]V[Thr(3ξ)]C[Orn][AEEA][Aun]-OH; thioether N-14), the pIC50 is 7.75.

The values above are taken from patent publication US20260070945A1, “MACROCYCLIC IMMUNOMODULATORS” (Bristol-Myers Squibb Company, priority 2022, published 2026).
